In patent publication US12570657B2, “Mesylate salts of heterocyclic cytokinins, compositions containing these derivatives and use thereof” (UNIVERZITA PALACKEHO V OLOMOUCI, priority 2020, dated 2026):
pIC50: −log10 of the molar value. Where two headings read alike, the source gives them in different places.

Assays:
[1] = system: retinal epitelium cells ARPE-19; experiment: Cytotoxicity for non-cancer cells, resazurine reduction assay, ARPE-19
Protocol: (§1) It is used for viability testing of both bacterial and eukaryotic cells. […] Cultivation medium was DMEM with 10% FBS. Before the experiment, the cells were subcultured for 2 weeks. For the cytotoxicity evaluation, the cells were trypsinized and pipetted into 96 well plates (5000 cells per well in 80 microliters). After 24 hours, 5× concentrated solutions of the tested compounds in the medium were added. […] IC50 values were calculated from dose response curves using drc library for R programming environment.

[2] = system: CEM (T-lymphoblastic leukemia); experiment: In vitro cytotoxicity, Calcein AM assay, CEM; assay type: cell-based; conditions: 3-day Calcein-AM assay
Excerpt: (§2) Because toxic compounds adversely affect cell metabolic processes, many standard cytotoxicity assays are based on measuring the rate of metabolism of various artificial substrates. The resulting product is then quantified, for example, by spectrometry. Assays can be easily modified for use in 96-well plates, A microtiter assay based on the quantification of Calcein AM metabolism was used to evaluate the cytotoxicity of cytokinins, for example meta-topolin, ortho-topolin, kinetin, BAP or its mesylate salts, but also a number of other cytokinin mesylate derivatives according to the invention. The test is widely used in drug screening programs and in chemosensitivity testing. In living cells, Calcein AM is enzymatically hydrolyzed and the accumulation of the resulting calcein is manifested by green fluorescence. […] These cells were maintained in standard DMEM or RPMI medium (Sigma, MO, USA) supplemented with heat-inactivated fetal bovine serum (10%) with 2 mM L-glutamine and penicillin-streptomycin (1%) under standard cell culture conditions (37° C., 5% CO2 in a humid environment) and subcultured two or three times a week using a standard trypsinization procedure. Approximately 10,000 cells in 80 μl of medium were seeded in a 96-well microtiter plate. After 12 hours of incubation, the compounds to be tested were added in 20 μl aliquots. Control cultures were treated with DMSO alone. […] After 72 hours of incubation, Calcein AM solution (Molecular Probes) was added to a final concentration of 1 μg/ml and the cells were incubated for another hour.
(§3) Cytoxicity of compounds was tested on panel of cell lines of different histogenetic and species origin.

[3] = system: HL-60 (promyelocytic, leukemia); experiment: In vitro cytotoxicity, Calcein AM assay, HL60; assay type: cell-based; conditions: 3-day Calcein-AM assay
Excerpt: as §2, §3

[4] = system: MCF-7 (breast adenocarcinoma); experiment: In vitro cytotoxicity, Calcein AM assay, MCF7; assay type: cell-based; conditions: 3-day Calcein-AM assay
Excerpt: as §2, §3

keratinocytes HaCaT = experiment: Cytotoxicity for non-cancer cells, resazurine reduction assay, HaCaT
Protocol: as §1

[5] = system: cytokinin-dependent tobacco callus; experiment: Tobacco callus biotest (stimulation of plant cell division); assay type: cell-based, Nicotiana tabacum L. cv. Wisconsin 38; conditions: for activity (%) [10^−5 mol · l^−1 BAP = 100%]: callus growth at concentration with highest activity, 10^−5 M BAP = 100%
Protocol: Stimulation effect of the cytokinin mesylates was tested in tobacco callus biotest using cytokinin dependent tobacco callus. Cytokinin-dependent tobacco callus Nicotiana tabacum L. cv. […] Subcultivation was carried out every three weeks. Fourteen days before the bioassay, the callus tissue was transferred to the media without BAP. Biological activity was determined from the increase in fresh callus weight after four weeks of cultivation. Five replicates were prepared for each cytokinin concentration and the entire test was repeated twice. […] Relative activity of the compound at this concentration was calculated (Tab. 15). The activity obtained for 10^−5 M 6-benzylaminopurine (BAP) was postulated as 100%. The cytokinin bases to be tested were dissolved in dimethylsulfoxide (DMSO) and the solution brought up to 10^−3 M with distilled water. The mesylate salts were dissolved directly in distilled water.

[6] = system: winter wheat leaf segments; experiment: Senescence bioassay: retention of chlorophyll in excised winter wheat leaf tips; assay type: in vivo, Triticum aestivum cv. Hereward; conditions: for activity (%) [10^−4 mol · l^−1 BAP = 100%]: chlorophyll retention at concentration with highest activity, 10^−4 M BAP = 100%
Protocol: Seeds of winter wheat, Triticum aestivum cv. Hereward, were washed under running water for 24 hours and then sown on vermiculite soaked with Knop's solution. They were placed in a growth chamber at 25° C. with a 16/8 h light/dark period at 50 μmol·m^−2·s^−1. After 7 days, the first leaf was fully developed and the second leaf had started to grow. A tip section of the first leaf, approximately 35 mm long, was removed from 5 seedlings and trimmed slightly to a combined weight of 100 mg. The basal ends of the five leaf tips were placed in the wells of a microtiter polystyrene plate containing 150 μl of each tested compound solution. The entire plate was inserted into a plastic box lined with paper tissues soaked in distilled water to prevent leaf sections from drying out. After 96 h incubation in the dark at 25° C., the leaves were removed and chlorophyll extracted by heating at 80° C. for 10 min in 5 ml of 80% ethanol (v/v). The sample volume was then restored to 5 ml by the addition of 80% ethanol (v/v). The absorbance of the extract was recorded at 665 nm. In addition, chlorophyll extracts from fresh leaves and leaf tips incubated in deionised water were measured. […] Relative activity of the compound at this concentration was calculated (Tab. 3). The activity obtained for 10^−4 M 6-benzylaminopurine (BAP) was postulated as 100%. The values shown are means of five replicates and the whole experiment was repeated twice. The tested cytokinin bases were dissolved in dimethylsulfoxide (DMSO) and the solution brought up to 10^−3 M with distilled water. Cytokinin mesylate salts which are more water-soluble (BAP mesylate, meta-topolin mesylate and kinetin mesylate) could be directly dissolved to form a 10^−3 M solution in distilled water.

skin fibroblasts BJ = experiment: Cytotoxicity for non-cancer cells, resazurine reduction assay, BJ
Protocol: as §1

[7] = system: K562 (chronic myeloid leukemia); experiment: In vitro cytotoxicity, Calcein AM assay, K-562; assay type: cell-based; conditions: 3-day Calcein-AM assay
Excerpt: as §2, §3

[8] = Aqueous solubility: concentration of saturated solution by HPLC; assay type: physicochemical; conditions: thermodynamic from solid; saturated solution in water, cytokinin mesylate; read-out: c of CK mesylate
Protocol: Aqueous solubility was measured using the following protocol. Supersaturated solution of meta-topolin mesylate salt was prepared. The solutions were filtered off from visible undissolved particles of the salt to obtain homogenic saturated solution. Saturated solution was diluted 1:10 000 and measured using HPLC Alliance Waters 2690 with C18 Symmetry column with the diameter 2.1 mm and 150 mm length with a porosity of 5 μm. The sample was dissolved in the mobile phase (MeOH: HCOONH4-1:9). The sample was washed with a methanol gradient (10-90%, 35 min) at pH 4 and a flow rate of 0.3 ml/min. The absorbances of the components were detected in the UV region at 210-400 nm. The peak area of meta-topolin mesylate salt was 595 027. The standard was measured as shown in the Table 9 below, Obtained peak area was compared to area peaks measured at certain concentration and the final concentration of saturated solution was determined
Solubility of other cytokinin (CK) mesylates was also determined by this method and the concentrations of saturated solutions are given below in Table 10: […]

rose explants = experiment: In vitro and post vitro multiplication and rooting of rose; assay type: in vivo, Rosa multiflora
Protocol: The aim of this experiment was to test whether the new compounds are of practical use in tissue culture practice. The multiplication rate was investigated and the post vitro effects on rooting were examined Rosa hybrida (pot rose cultivar) was cultured in 350 ml vessels with a screw on polycarbonate lid. Each culture vessel contained 100 ml autoclaved medium (120° C., 20 min). The cultures were maintained at 23±2° C. under a 16 h photoperiod at 40 μM·m^−2 s^−1 PAR. The basal medium (BMR) contained Murashige and Skoog (1962) macroelements, microelements and vitamins, 95 μM NaFeEDTA, 555 μM myo-inositol, 111 mM sucrose, 1.332 mM glycine, 684 μM L-glutamine and 7 g/l agar. This medium was supplemented with 10 μM BAP, mT, or 3MeOBAP, or the corresponding mesylate salts. The control medium didn't contain any cytokinin After a culture period of 8 weeks, the number of induced shoots per explant was determined, as well as root number/explant and total root length/explant. The roots were removed and the explants (shoot clusters) were planted in unfertilised peat. After four weeks of acclimatising in a fog unit, root number and root length was determined. As expected, a cytokinin free medium yielded almost no new shoots. The original shoot explant grew out as a good quality single shoot that rooted very well. […] Explants growing on cytokininin mesylates were characterized by a high multiplication index (a large number of new shoots) and were more rooted in comparison with free bases. The use of cytokinin mesylates led to an increase in all monitored parameters in plant culture compared to free cytokinin bases.

[9] = resazurin, 72 hour treatment, ARPE-19
[10] = resazurin, 72 hour treatment, HaCaT
[11] = resazurin, 72 hour treatment, BJ
[12] = Ex vitro, after four weeks of acclimatising in peat
[13] = In vitro, 10 μM cytokinin, 8 weeks

| Compound | Cytotoxicity for Fibroblasts (GI20) ARPE-19 [1, 9] [μM] | pIC50 [2] | pIC50 [3] | pIC50 [4] | Cytotoxicity for Fibroblasts (GI20) HaCaT (keratinocytes HaCaT; [10]) [µM] | activity (%) [10^−5 mol · l^−1 BAP = 100%] [5] [%] | activity (%) [10^−4 mol · l^−1 BAP = 100%] [6] [%] | Cytotoxicity for Fibroblasts (GI20) BJ (skin fibroblasts BJ; [11]) [µM] | solubility thermodynamic [8] [mM] | Cytotoxicity for Fibroblasts (GI20) BJ (skin fibroblasts BJ; human, 72 h) [µM] | also measured |
| --- | --- | --- | --- | --- | --- | --- | --- | --- | --- | --- | --- |
| C/C(=C\CNc1ncnc2nc[nH]c12)CO [trans-zeatin (tZ), trans-zeatin] | >100 | < 3.78 | < 3.78 | < 3.78 | >100 | 109 | 110 | >100 | – | – | – |
| C/C(=C\CNc1ncnc2[nH]cnc12)CO.CS(=O)(=O)O [tZ mesylate, (E)-4-(9H-Purin-6-Ylamino)-2-Methybut-2-En-1-ol)Methanesulphonate] | >100 | < 3.78 | < 3.78 | < 3.78 | >100 | 111 | 114 | >100 | – | – | – |
| CC(C)=CCNc1ncnc2[nH]cnc12.CS(=O)(=O)O [iP mesylate, N-3-(Methylbut-2-En-1-Yl)-9H-Purin-6-Amin Methanesulphonate] | – | 3.89 | – | < 3.78 | – | 95 | 95 | – | – | – | Cytotoxicity for Fibroblasts (GI20) ARPE-19 [1]: >100 μM; Cytotoxicity for Fibroblasts (GI20) HaCaT (keratinocytes HaCaT): >100 µM; concentration with highest activity ([5]; tobacco callus fresh weight increase, four weeks): 10^−6 mol · l^−1; pIC50 [7]: 3.79; concentration with highest activity ([6]; chlorophyll retention, excised wheat leaf tips, 96 h dark): 10^−4 mol · l^−1; Cytotoxicity for Fibroblasts (GI20) BJ (skin fibroblasts BJ): 149.3 µM |
| CS(=O)(=O)O.c1coc(CNc2ncnc3nc[nH]c23)c1 [Kinetin mesylate, 6-furfurylaminopurine mesylate] | >100 | – | – | – | >100 | – | 110.9 | – | 92.6 | >100 | pIC50 ([2]; 72 h): < 3.78; pIC50 ([4]; Homo sapiens, MCF7, 72 h): < 3.78; pIC50 ([7]; Homo sapiens, K562, 72 h): < 3.78 |
| CS(=O)(=O)O.Oc1ccccc1CNc1ncnc2nc[nH]c12 [oT mesylate, 6-(2-hydroxybenzylamino)purine mesylate] | >100 | – | – | – | >100 | 87 | 69 | – | 82.3 | >100 | pIC50 ([2]; mesylate): 4.05 |
| COc1cccc(CNc2ncnc3nc[nH]c23)c1.CS(=O)(=O)O [3MeOBAP mesylate, 6-(3-methoxybenzylamino)purine mesylate] | – | – | – | – | – | 83 | – | – | 47.5 | – | Number of roots per plant (rose explants; [12]): 1.9; Overall length of plant (cm) (rose explants; [12]): 4.5 cm; Number of new shoots per explant (rose explants; [13]): 4.5; Number of roots per explant (rose explants; [13]): 0.0; Overall length of explant (cm) (rose explants; [13]): 0.0 cm; number of flowers per explant (rose explants; [13]): 0.02; activity (%) [10^−4 mol · l^−1 BAP = 100%] ([6]; listed as 3-MeoBAP mesylate, mesylate): 125%; activity (%) [10^−4 mol · l^−1 BAP = 100%] ([6]; mesylate): 184% |
